Source: publication PMC7954579 (Cancer chemotherapy and pharmacology, 2020)
pIC50: −log10 of the molar value. Several values for one entry are separate records, joined by “and”; a condition that tells them apart may be missing. Equal values may be shown once.

Legend:
[1] = twice-weekly schedule, monotherapy; cited from earlier work
[2] = IV, days 1, 4, 8, 11 of 21-day cycle, with onalespib 80 mg/m^2 (DL2)
[3] = tested on: colorectal cancer cell line; assay: In vitro combination study in a colorectal cancer cell line; type: cell-based; conditions: Supplementary Fig. 1A
[4] = Plasma pharmacokinetics in patients; type: in vivo, human; conditions: for half-life: t1/2,z
[5] = tested on: CDKs 1,2,4,5, and 9; conditions: read-out: IC50 range; cited from earlier work
[6] = All dose levels, C1D1, AT7519 after onalespib, n = 23, geometric mean
[7] = All dose levels, C1D11, AT7519 after onalespib, n = 15, geometric mean
[8] = DL1, C1D1, AT7519 21 mg/m^2 IV after onalespib 40 mg/m^2, n = 4, geometric mean
[9] = DL1, C1D11, AT7519 21 mg/m^2 IV after onalespib 40 mg/m^2, n = 2, geometric mean
[10] = DL2, C1D1, AT7519 21 mg/m^2 IV after onalespib 80 mg/m^2, n = 15, geometric mean
[11] = DL2, C1D11, AT7519 21 mg/m^2 IV after onalespib 80 mg/m^2, n = 11, geometric mean
[12] = DL3, C1D1, AT7519 27 mg/m^2 IV after onalespib 80 mg/m^2, n = 4, geometric mean
[13] = DL3, C1D11, AT7519 27 mg/m^2 IV after onalespib 80 mg/m^2, n = 2, geometric mean
[14] = human, plasma, iv, DL1, C1D1, AT7519 21 mg/m^2 IV after onalespib 40 mg/m^2, n = 4, geometric mean
[15] = human, plasma, iv, DL1, C1D11, AT7519 21 mg/m^2 IV after onalespib 40 mg/m^2, n = 2, geometric mean
[16] = human, plasma, iv, DL2, C1D1, AT7519 21 mg/m^2 IV after onalespib 80 mg/m^2, n = 15, geometric mean
[17] = human, plasma, iv, DL2, C1D11, AT7519 21 mg/m^2 IV after onalespib 80 mg/m^2, n = 11, geometric mean
[18] = human, plasma, iv, DL3, C1D1, AT7519 27 mg/m^2 IV after onalespib 80 mg/m^2, n = 4, geometric mean
[19] = human, plasma, iv, DL3, C1D11, AT7519 27 mg/m^2 IV after onalespib 80 mg/m^2, n = 2, geometric mean

For `O=C(NC1CCNCC1)c1n[nH]cc1NC(=O)c1c(Cl)cccc1Cl` [AT7519, N-(4-piperidinyl)-4-(2,6-dichlorobenzoylamino)-1H-pyrazole-3-car-boxamide], the “RP2D as individual agent” value [1] is given as 27 mg/m^2, the “Maximally tolerated dose (MTD) of AT7519 in the combination” value [2] is given as 21 mg/m^2 and the “Effect on onalespib-induced HSP70 upregulation” value [3] is given as “dose-dependent inhibition of onalespib-induced HSP70 upregulation”. For the same molecule, the CL [4, 6] was 9.97 L/h/m^2, the Vz [4, 6] was 144.3 L/m^2 and the CL [4, 7] was 8.93 L/h/m^2. The Vz [4, 7] was 135.9 L/m^2, the CL [4, 8] was 13.6 L/h/m^2 and the Vz [4, 8] was 146.6 L/m^2. For the same molecule, the CL [4, 9] was 9.98 L/h/m^2, the Vz [4, 9] was 155.9 L/m^2 and the CL [4, 10] was 9.1 L/h/m^2 and 9.13 L/h/m^2. For the same molecule, the Cmax [4, 10] was 459.3 ng/mL, the Vz [4, 10] was 146.3 L/m^2 and the CL [4, 11] was 8.6 L/h/m^2 and 8.58 L/h/m^2. The Cmax [4, 11] was 508.7 ng/mL, the Vz [4, 11] was 132.6 L/m^2 and the CL [4, 12] was 10.1 L/h/m^2. The Vz [4, 12] was 134.7 L/m^2, the CL [4, 13] was 10.0 L/h/m^2 and the Vz [4, 13] was 135.5 L/m^2. It also gave an AUC [4, 14] of 1540 ng·h/mL, an AUC [4, 15] of 2100 ng·h/mL and an AUC [4, 16] of 2300 ng·h/mL. The AUC [4, 17] was 2450 ng·h/mL, the AUC [4, 18] was 2660 ng·h/mL and the AUC [4, 19] was 2700 ng·h/mL. The Cmax ([4]; human, plasma, iv, Cmax, DL1, C1D1, AT7519 21 mg/m^2 IV after onalespib 40 mg/m^2, n = 4, geometric mean) was 463 ng/mL, the Cmax ([4]; human, plasma, iv, Cmax, DL1, C1D11, AT7519 21 mg/m^2 IV after onalespib 40 mg/m^2, n = 2, geometric mean) was 486 ng/mL and the Cmax ([4]; human, plasma, iv, Cmax, DL2, C1D1, AT7519 21 mg/m^2 IV after onalespib 80 mg/m^2, n = 15, geometric mean) was 459 ng/mL. It also gave a Cmax ([4]; human, plasma, iv, Cmax, DL2, C1D11, AT7519 21 mg/m^2 IV after onalespib 80 mg/m^2, n = 11, geometric mean) of 509 ng/mL, a Cmax ([4]; human, plasma, iv, Cmax, DL3, C1D1, AT7519 27 mg/m^2 IV after onalespib 80 mg/m^2, n = 4, geometric mean) of 602 ng/mL and a Cmax ([4]; human, plasma, iv, Cmax, DL3, C1D11, AT7519 27 mg/m^2 IV after onalespib 80 mg/m^2, n = 2, geometric mean) of 581 ng/mL. The half-life [4, 14] was 7.48 h, the half-life [4, 15] was 10.8 h and the half-life [4, 16] was 11.1 h. The half-life [4, 17] was 10.7 h, the half-life [4, 18] was 9.21 h and the half-life [4, 19] was 9.38 h. The pIC50 [5] was 6.66 to 7.96.
